Here are results for ten compounds from patent publication US5096929A, “2-amino-1,2,3,4-tetrahydronaphthalene derivatives with cardiovascular activity, process for their preparation and pharmaceutical compositions containing them” (Chiesi Farmaceutici S.p.A., priority 1989, dated 1992).

For data set [1], the system named is arterial rat hind quarter. Briefly: Rat perfused hind quarter; vasodilating action. The note with it: for Emax: Rattus norvegicus; for ED40, K+ induced contraction / ED40, norepinephrine induced contraction / ED40, 5-HT induced contraction: dose decreasing contraction by 40%; for ED40, K+ induced contraction: K+ 40 mM; for ED40, 5-HT induced contraction: serotonin 5×10^-7 M. How it is done: Rat perfused hind quarter; vasodilating action
The vasodilating effect of CHF 1255 has been evaluated in the arterial rat hind quarter perfused with Krebs-Henseleit solution at constant flow.
The increase of arterial resistance was induced by K^+ -enriched solution (40 mM), norepinephrine (5×10^-6 M) and serotonin (5×10^-7 M).
Papaverine and prazosin, powerful α-blocker vasodilator, were used as reference compounds.
ED40 =dose (moles) decreasing of 40% the contraction induced by the agonist. 100% was considered as the complete recduction of contraction.

Data set [2] relates to isolated rat left atrium. The data set can be described thus: Isolated rat left atrium: inotropic activity (force). The note with it: for Inotropic activity of diastereoisomeric mixture (in words): rat isolated left atrium; for pEC50 / Emax: Rattus norvegicus; for pEC50: read-out: EC50, left atrium (force); for Activity in isolated rat left atrium and right atrium (in words): Table I and text. The procedure: (§1) The inotropic and chronotropic effects of compound (Ia) of the invention were determined in vitro using, respectively, isolated rat left atrium and right atrium.
Left atrium:inotrocic activity
The atria were subjected to a 0.5 g starting tension and suspended in a bath containing aerated Krebs-Henseleit j solution with 95% O2 and […] kept at 32.C. The preparation was stimulated at a 4 Hz frequency with pulses during 5 msec each. The contraction strength was detected by an isometric transducer and recorded on a microndynamometer.
(§2) The results were expressed as the percentage of the response obtained with a maximal dose ([…]) of isoproterenol which was determined at the beginning of the test. In Table 1 the potency (EC50=effective concentration inducing the 50% of the maximal effect) and the relative intrinsic activity (expressed as α and compared with that of isoproterenol, taken=1) are shown.
(§3) The effects of the compounds were evaluated in rat isolated atria according to the previously described method.
(§4) Table 3. Potency (EC50) and intrinsic activity (α;isoproterenol=1) on the isolated rat left atrium (Inotropic activity) and right atrium (chronotropic activity).

In data set [3] the test system is beta-1. The note with it: background art, cited from earlier work.
In data set [4] the test system is isolated rat right atrium. Briefly: Isolated rat right atrium: chronotropic activity (frequency). The note with it: Rattus norvegicus; for pEC50: read-out: EC50, right atrium (frequency). How it is done: as §1
Right atrium:chronotrpic activity
The preparation was prepared in the same way and under the same conditions as described above, but was not subjected to electric stimulation. Frequency was monitored by a cardiotachograph.
as §2, §3, §4

The subject of data set [5] is anesthetized dog. The data set can be described thus: Anesthetized dog: cardiovascular activity. The data set is classed as in vivo, Beagle dog. The note with it: anesthetized dog, i.v. How it is done:
The interesting hemodynamic properties of CHF 1255 were confirmed in vivo in the anesthetized dog.
Anesthesized dog: cardiovascular activity
Beagle dogs were anesthetized with sodium pentobarbital (30 mg/kg iv) thoracotomized and monitored by recording cardiocirculatory parameters.
CHF 1255 and the reference drugs (amrinone and xamoterol) were administered i.v. in a bolus.
CHF 1255 at the doses of 0.3-1.3 μmoles/kg i.v. confirmed its activity in changing hemodynamic parameters.

Data set [6] addresses T1, beta-2 adrenergic receptors (Cavia porcellus, UniProt Q8K4Z4).
T1 construct: Trachea strips were isolated and prepared according to the method described by Emerson J and Machay D; from tissue; host or cells: guinea-pig isolated trachea strips
Briefly: Isolated guinea-pig trachea: interactions with beta-2 adrenergic receptors (relaxation of carbachol contraction). The note with it: for pEC50: guinea-pig trachea, carbachol 3×10^-7 M. How it is done:
The selectivity of this interaction has been studied by evaluating the effects on beta-2 adrenergic receptors, in the guinea-pig isolated trachea, using CHF 1026 as reference compound.
Isolated guinea-pig trachea: interactions with beta-2 adrenergic receptors
Trachea strips were isolated and prepared according to the method described by Emerson J and Machay D in J Pharm Pharmacol 1979, 31, 798, immersed in Krebs-Henseleit solution (37° C., 95% O2 +5% CO2), subjected to an initial tension of 1 g and contracted with carbachol (3×10^-7 M).
Dose-response curves of CHF 1255 and CHF 1026 were recorded in the absence and in the presence of 10^-6 M propranolol, used as antagonist and added to the bath before the stimulation with carbachol.
The obtained results are shown in Table 2, expressed as potency (EC50 calculated from t he dose--response curve) and intrinsic activity (α, isoproternol=1).

The mark [7] stands for this setting: Table 3, chronotropic activity, rat right atrium.
[8] abbreviates: Table 3, isoproterenol=1, read-out: α, right atrium (frequency).
[9] abbreviates: Table 3, inotropic activity, rat left atrium.
The mark [10] stands for this setting: Table 3, isoproterenol=1, read-out: α, left atrium (force).
Setting [11] is: Table I, isolated rat right atrium, confidence limits in parentheses.
The mark [12] stands for this setting: Table I, isoproterenol taken=1, confidence limits in parentheses, read-out: α (intrinsic activity), right atrium (frequency).
Where [13] appears, read: Table I, isolated rat left atrium, 4 Hz stimulation, confidence limits in parentheses.
Setting [14] is: Table I, isoproterenol taken=1, confidence limits in parentheses, read-out: α (intrinsic activity), left atrium (force).

pEC50: −log10 of the molar value. Structures can show the parent of a compound that is named as a salt. Where two headings read alike, the source gives them in different places.

T1 sequence (Q8K4Z4 whole entry): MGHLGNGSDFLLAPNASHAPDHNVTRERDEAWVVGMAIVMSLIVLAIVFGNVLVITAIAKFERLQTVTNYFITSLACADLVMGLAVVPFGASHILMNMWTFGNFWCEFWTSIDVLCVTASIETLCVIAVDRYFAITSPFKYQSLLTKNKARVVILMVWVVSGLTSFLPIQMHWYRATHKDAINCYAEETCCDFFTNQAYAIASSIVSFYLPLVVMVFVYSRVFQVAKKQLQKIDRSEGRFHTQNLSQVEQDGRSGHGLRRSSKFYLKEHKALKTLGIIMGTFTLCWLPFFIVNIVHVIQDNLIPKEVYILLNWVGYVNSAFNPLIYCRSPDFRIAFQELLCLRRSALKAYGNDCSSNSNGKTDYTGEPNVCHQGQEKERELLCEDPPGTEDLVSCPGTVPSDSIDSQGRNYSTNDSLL

Turning to `COc1cc2nc(N3CCN(C(=O)c4ccco4)CC3)nc(N)c2cc1OC` [prazosin], the Emax in data set [1] (100% = complete reduction, norepinephrine 5×10^-6 M, read-out: α (efficacy), norepinephrine induced contraction) was found to be 96%. Further, in data set [1], the “ED40, K+ induced contraction” value was “inactive” and the “ED40, 5-HT induced contraction” value was “inactive”. The “ED40, norepinephrine induced contraction” value in data set [1] (norepinephrine 5×10^-6 M) turned out to be 1.5e-11 mol.

Turning to `COc1ccc2c(c1OC)CCC(N[C@@H](C)[C@H](O)c1ccc(O)cc1)C2` (some centres unmarked) [CHF 1389, (αS, βR)-5,6-Dimethoxy-2-[2-(4-hydroxyphenyl)-2-hydroxy-1-methylethylemino]-1,2,3,4-tetrahydronaphthalene hydrochloride], the “Inotropic activity of diastereoisomeric mixture (in words)” value in data set [2] was “as effective as CHF 1255 in the rat isolated left atrium”.

Regarding `O=C(NCCNCC(O)COc1ccc(O)cc1)N1CCOCC1` (centres unmarked) [xamoterol, xamoterol fumarate], the “Agonistic action relative to isoproterenol” value in data set [3] (% that of isoproterenol) is 40%. Moreover, in data set [3] (vs prenalterol), the “Tolerability (in words)” value was “better tolerated”. Also, the figures for the pEC50 in data set [4] and in data set [2] were 8.33 and 8.30, respectively. The Emax in data set [4] (read-out: α, right atrium (frequency)) came out at 76%; in data set [2] (read-out: α, left atrium (force)), 33%. The “Hemodynamic effects (in words)” value in data set [5] was “negligible”.

Consider `COc1ccc2c(c1OC)CCC(NCC(O)c1cccc(O)c1)C2` (centres unmarked) [CHF 1297], for which the “Activity in isolated rat left atrium and right atrium (in words)” value in data set [2] was “completely inactive”.

As for `Nc1cc(-c2ccncc2)c[nH]c1=O` [amrinone], the pEC50 in data set [4] (setting [7]) was 3.81; in data set [2] (setting [9]), 4.58. For the same compound, the Emax in data set [4] (setting [8]) stood at 147%; in data set [2] (setting [10]) it was 29%.

For `NCCc1ccc(O)c(O)c1` [dopamine], the pEC50 is 5.72 in data set [4] (setting [7]), 5.72 in data set [4] (setting [11]), 5.92 in data set [2] (setting [9]) and 5.92 in data set [2] (setting [13]). In addition, the Emax in data set [4] (setting [8]) is 106%; in data set [4] (setting [12]) it was 106%; in data set [2] (setting [10]), 95%; in data set [2] (setting [14]) it was 95%.

As for `CC(CCc1ccc(O)cc1)NC1CCc2cc(O)c(O)cc2C1` (centres unmarked) [CHF 1026, 2-[1-(4-hydroxyphenyl)-but-3-ylamino]-6,7-dihydroxy-1,2,3,4-tetrahydronaphthalene, reference compound], the pEC50 in data set [4] (setting [11]) was 6.89; in data set [2] (setting [13]) it was 6.05; in data set [6] (with 10^-6 M propranolol, read-out: EC50 in presence of propranolol), 3.89; in data set [6] (without propranolol, read-out: EC50 in absence of propranolol) it was 6.64. For the same compound, the Emax is 86% in data set [4] (setting [12]); 81% in data set [2] (setting [14]); 99% in data set [6] (guinea pig, isoproterenol=1, without propranolol, read-out: α in absence of propranolol). In addition, in data set [6] (10^-6 M propranolol), the “Effect of propranolol on dose-response curve” value is given as “parallelely shifted to the right, showing a competitive antagonistic action”. Moreover, the “α in presence of propranolol” value in data set [6] (isoproterenol=1, with 10^-6 M propranolol) came out at 0.94.

`COc1ccc2c(c1OC)CCC(N[C@H](C)[C@@H](O)c1ccc(O)cc1)C2` (some centres unmarked) [CHF 1388, (αR,βS)-5,6-dimethoxy-2-[2-(4-hydroxyphenyl)-2-hydroxy-1-methylamino]-2-hydroxy-I-methylethylamino]--,2,3,4-tetrahydronaphthalene hydrochloride]: in data set [2], the “Inotropic activity of diastereoisomeric mixture (in words)” value is “did not show any inotropic activity”. For the same compound, the “Contribution to vasodilating activity of CHF 1255” value in data set [1] is recorded as “vasodilating activity of CHF 1255 is mainly due to CHF 1388”.

On to `COc1ccc(Cc2nccc3cc(OC)c(OC)cc23)cc1OC` [papaverine, Papaverine], for which the “Activity against contraction by the different agents (in words)” value in data set [1] (K+, norepinephrine, serotonin) was “same ED40 for the different experimental conditions”. Besides, the Emax in data set [1] (read-out: α (efficacy), 5-HT induced contraction) turned out to be 90%; in data set [1] (read-out: α (efficacy), K+ induced contraction), 90%; in data set [1] (read-out: α (efficacy), norepinephrine induced contraction), 95%. Further, the “ED40, K+ induced contraction” value in data set [1] worked out at 6.5e-08 mol. For the same compound, the “ED40, norepinephrine induced contraction” value in data set [1] (norepinephrine 5×10^-6 M) amounted to 4.5e-08 mol. The “ED40, 5-HT induced contraction” value in data set [1] was determined as 5e-08 mol.

As to `COc1ccc2c(c1OC)CCC(NCC(O)c1ccc(O)cc1)C2` (centres unmarked) [CHF 1296], the “Activity in isolated rat left atrium and right atrium (in words)” value in data set [2] was “completely inactive”.

The term pEC50 denotes the EC50 on a negative log10 scale, so that one unit is a factor of ten.
